{"source": "patent US4389412A", "about": "“Substituted cyclopropanecarboxylic acid esters and pesticidal compositions containing the same as active ingredient” (priority 1979, dated 1983)", "key": {"[1]": {"system": "small brown planthoppers (Laodelphax striatellus Fallen)", "experiment": "Utility Example-3: spray on rice plants, small brown planthoppers", "format": "in vivo", "details": "7 ml/pot, 24 hours", "experimental": "(§1) A 30% emulsifiable concentrate of each of the cis- and trans-isomers and a 50:50 mixture of the cis- and trans-isomers of Compound (1) and of Compound (2) as prepared by the procedure described in Formulation Example-1 was diluted with water to a concentration of 80 ppm as active compound. Rice plants 4 weeks after sowing in pots (each pot 6 cm in diameter, 7 seedlings) were sprayed with the above diluted solution at the rate of 7 ml/pot and, after drying in the air, each pot was covered with a wire-mesh cage. Then, 30 adult small brown planthoppers (Laodelphax striatellus Fallen) were released into the cage. The pots were kept in a constant-temperature chamber at 25° C. […] In all groups, the mortality was not less than 90%."}, "[2]": {"system": "green rice leafhoppers (Nephotettix cincticeps)", "experiment": "Utility Example-6: 0.5% dust on rice seedlings, green rice leafhoppers", "format": "in vivo", "details": "1 kg per 10 ares, 24 hours, resistant to organophosphorus and carbamate pesticides", "excerpt": "A 0.5% dust preparation of each of the cis- and trans-isomers and a 50:50 mixture of the cis- and trans-isomers of Compound (1) and of Compound (2) as prepared by the procedure described in Formulation Example-4 was applied to rice seedlings by means of a bell-jar duster at the rate of 1 kg per 10 ares. Then, 30 green rice leafhoppers (Nephotettix cincticeps) resistant to organophosphorus and carbamate pesticides were released. […] In all cases, the mortality was not less than 90%."}, "[3]": {"system": "rice stem borers (Chilo suppressalis Walker)", "experiment": "Mortality test with rice stem borers by topical application method", "format": "in vivo", "details": "24 h", "experimental": "Mortality test with rice stem borers (Chilo suppressalis Walker) by topical application method\nUsing a microsyringe, 0.5 μl of the above solution was applied to the thoracic abdominal region of each final-instar larva of rice stem borer (Chilo suppressalis Walker). […] The test larvae were used in groups of 20 individuals each."}, "[4]": {"system": "houseflies (Musca domestica)", "experiment": "Mortality test with houseflies by topical application method", "details": "24 h"}, "[5]": {"system": "green rice leafhoppers (Nephotettix cincticeps Uhler)", "experiment": "Utility Example-2: spray on rice plants, green rice leafhoppers", "format": "in vivo", "details": "7 ml/pot, 24 hours", "experimental": "as §1, with “and” for “and of”, “above” for “above diluted”, “Then, 20 female” for “Then, 30”, “adult green rice leafhoppers (Nephotettix cincticeps Uhler)” for “adult small brown planthoppers (Laodelphax striatellus Fallen)”, “The caged” for “The”, “mortality values were” for “mortality was”"}, "[6]": {"system": "tobacco cutworms (Prodenia litura Fabricius)", "experiment": "Mortality test with tobacco cutworms by topical application method", "format": "in vivo", "details": "24 h", "experimental": "Mortality test with tobacco cutworms (Prodenia litura Fabricius) by topical application method\nUsing a microsyringe, 0.5 μl of the above solution was dripped onto the thoracic adbominal region of each of 3-instar tobacco cutworm (Prodenia litura Fabricius) larvae. […] The test larvae were used in groups of 20 individuals each."}, "[7]": {"experiment": "Acute toxicity test in rat by the oral route", "format": "in vivo", "details": "in vivo, male rat, in olive oil, after 7 days", "excerpt": "(§2) Acute toxicity test in rat by the oral route"}, "rat": {"system": "rat", "experiment": "Acute toxicity test in rat by the oral route", "format": "in vivo", "details": "Table 1, rat, 10080 min", "excerpt": "as §2"}, "[8]": {"system": "killifish (Orizias latipes)", "experiment": "Fish toxicity test with killifish", "format": "in vivo", "details": "Table 1; 48 hrs.", "experimental": "(§3) Fish toxicity test with killifish (Orizias latipes)\n(§4) An acetone solution of one of the test compounds as mentioned in Table 8 was prepared by adding said test compound to 15 ml of acetone. To 10 liters of water was added a predetermined amount of the above acetone solution and the mixture was stirred thoroughly to prepare an aqueous solution containing the test compound in a predetermined concentration. This was used as a test water. After the each test water was moderately aerated, ten killifishes (Orizias latipes) with a body weight of about 0.25 g and a body length of about 2.5 cm were released into said each test water which was maintained at 25±1° C. After 48 hours, the test fish was examined for death. The TLm (median tolerance limit, ppm) was determined."}, "[9]": {"experiment": "Fish toxicity test with killifish", "format": "in vivo, Orizias latipes", "details": "water, killifish, 25±1° C., read-out: TLm (48 hrs.)", "experimental": "as §3, §4"}, "[10]": {"experiment": "Fish toxicity test with guppies", "format": "in vivo, Lebistes reticulatus", "details": "guppy, water, guppies, 20° C., read-out: TLm (48 hrs.)", "procedure,_shortened": "(§5)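 Ten female guppies, 3–4 months old, held at 20 °C in water containing surfactant and test compound added in acetone solution. TLm (median tolerance limit, ppm) determined.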"}, "[11]": {"system": "guppies (Lebistes reticulatus)", "experiment": "Fish toxicity test with guppies", "format": "in vivo", "details": "Table 1; 48 hrs.", "procedure,_shortened": "as §5"}, "[12]": {"system": "green rice leafhoppers (Nephotettix cincticeps Uhler)", "experiment": "Utility Example-4: 0.2% dust on rice seedlings, green rice leafhoppers", "format": "in vivo", "details": "5 kg per 10 ares, 24 hours, resistant to organophosphorus and carbamate pesticides", "excerpt": "A 0.2% dust preparation of each of the cis- and trans-isomers and a 50:50 mixture of the cis- and trans-isomers of Compound (1) and of Compound (2) as prepared by the procedure described in Formulation Example-3 was applied to rice seedlings by means of a bell-jar duster at the rate of 5 kg per 10 ares. […] In all cases, the mortality was not less than 90%."}, "[13]": {"system": "two-spotted spider mites (Tetranychus urticae Koch)", "experiment": "Mortality test with two-spotted spider mites by spray application method", "format": "in vivo", "details": "48 h, 200 ppm spray, two days, read-out: Percent decrease of population (%)", "experimental": "Mortality test with two-spotted spider mites (Tetranychus urticae Koch) by spray application method\nTo a 5% aqueous solution of acetone was added dropwise a small amount of Tween-20 (polyethylene sorbitan monolaurate) as a surfactant. […] From 30 to 50 adult two-spotted spider mites (Tetranychus urticae Koch) were released on the leaves of kidney-bean plants in the dicotyledonous stage in a pot 9 cm in diameter, followed by a spray application of the above solution. The pot was kept in a constant-temperature chamber at 26° C. and two days later the mites were examined for deaths. The percent decrease of population was then calculated."}, "[14]": {"system": "brown planthoppers (Nilaparvata lugens)", "experiment": "Utility Example-7: 0.5% dust on rice seedlings, brown planthoppers", "format": "in vivo", "details": "1 kg per 10 ares, 24 hours", "excerpt": "A 0.5% dust preparation of each of the cis- and trans-isomers and a 50:50 mixture of the cis- and trans-isomers of Compound (1) and of Compound (2) as prepared by the procedure described in Formulation Example-4 was applied to rice seedlings, on which 30 adult brown planthoppers (Nilaparvata lugens) were released, by means of a bell-jar duster at the rate of 1 kg per 10 ares. […] In all cases, the mortality was not less than 90%."}, "[15]": {"system": "tobacco cutworm (Prodenia litura)", "experiment": "Utility Example-5: spray on soy bean leaves, tobacco cutworm larvae", "format": "in vivo", "details": "48 h; 13 ppm; 2 days", "experimental": "An acetone solution of one of the test compounds as mentioned in Table 13 and Tween-20 (the same surfactant as mentioned hereinbefore) was prepared. This acetone solution was diluted with water to prepare a solution containing the test compound in a predetermined concentration. Leaves of soy bean in pots were sprayed with the above diluted solution at the rate of 20 ml/pot and, after one day, ten 3-instar larvae of tobacco cutworm (Prodenia litura) were released on the leaves. The pots were kept in a constant-temperature chamber at 25° C."}, "[16]": {"system": "green rice leafhoppers (Nephotettix cincticeps Uhler)", "experiment": "Mortality test with green rice leafhoppers by topical application method", "details": "Nephotettix cincticeps, in Oryza sativa, 24 h", "experimental": "Mortality test with green rice leafhoppers (Nephotettix cincticeps Uhler) by topical application method\nThen, the insects were kept at 25° C. with access to rice plant seedlings. The insects were used in groups of 15 individuals each."}}, "note": "Where two headings read alike, the source gives them in different places.", "data": [{"smiles": "CC1(C)C(C=C(Cl)Cl)C1C(=O)OCc1cccc(Oc2ccc(Cl)cc2)c1", "note": "(stereo not drawn) [Compound (1) cis-/trans- = 50:50, 3-(4-chlorophenoxy)benzyl 2,2-dimethyl-3-(2,2-dichlorovinyl)cyclopropanecarboxylate]", "values": [{"measurement": "mortality at 80 ppm", "setting": "[1]", "value": "≥ 90", "unit": "%"}, {"measurement": "mortality", "setting": "[2]", "value": "not less than 90%"}, {"measurement": "mortality at 1 µg/larva", "setting": "[3]", "value": 100, "unit": "%"}, {"measurement": "mortality at 10 µg/larva", "setting": "[3]", "value": 100, "unit": "%"}, {"measurement": "mortality at 0.001 mg", "setting": "[3]; read-out: Pesticidal effect, rice stem borer", "value": 100, "unit": "%"}, {"measurement": "mortality at 0.5 µg/female", "setting": "[4]", "value": 100, "unit": "%"}, {"measurement": "mortality at 1 µg/female", "setting": "[4]", "value": 100, "unit": "%"}, {"measurement": "mortality at 0.001 mg", "setting": "[4]; read-out: Pesticidal effect, housefly", "value": 100, "unit": "%"}, {"measurement": "mortality at 80 ppm", "setting": "[5]", "value": "≥ 90", "unit": "%"}, {"measurement": "mortality at 0.0001 mg", "setting": "[6]", "value": 100, "unit": "%"}, {"measurement": "mortality at 0.0001 mg", "setting": "[6]; read-out: Pesticidal effect, tobacco cutworm", "value": 100, "unit": "%"}, {"measurement": "LD50 at 168 h", "setting": "[7]", "value": "> 3000", "unit": "mg/kg"}, {"measurement": "Acute oral toxicity to rat LD50", "setting": "rat", "value": "> 3000", "unit": "mg/kg"}, {"measurement": "Toxicity to fish TLm, killifish", "setting": "[8]", "value": "> 10", "unit": "ppm"}, {"measurement": "LC50 at 48 h", "setting": "[9]", "value": "> 10", "unit": "µg/mL"}, {"measurement": "LC50 at 48 h", "setting": "[10]", "value": "> 5", "unit": "µg/mL"}, {"measurement": "Toxicity to fish TLm, guppy", "setting": "[11]", "value": "> 5", "unit": "ppm"}, {"measurement": "mortality", "setting": "[12]", "value": "not less than 90%"}, {"measurement": "mortality at 200 ppm", "setting": "[13]", "value": 100, "unit": "%"}, {"measurement": "mortality", "setting": "[14]", "value": "not less than 90%"}, {"measurement": "mortality at 13 ppm", "setting": "[15]", "value": 100, "unit": "%"}, {"measurement": "mortality at 0.01 µg/female", "setting": "[16]", "value": 100, "unit": "%"}, {"measurement": "mortality at 0.1 µg/female", "setting": "[16]", "value": 100, "unit": "%"}, {"measurement": "mortality at 1 µg/female", "setting": "[16]", "value": 100, "unit": "%"}, {"measurement": "LD50", "setting": "[16]; read-out: LD50 (median lethal dose), topical, green rice leafhoppers", "value": 1.32, "unit": "mg/kg"}, {"measurement": "mortality at 10 ng", "setting": "[16]; read-out: Pesticidal effect, green rice leafhopper", "value": 100, "unit": "%"}]}]}
